Experiments:
Type in all cases: in vivo, mouse (female CDF1 mice)
[1] = test system: Mouse colon cancer, Colon26; experiment: Antitumor effect of compound 4 (Test Example 5); conditions: single i.v. at maximum tolerance dose (compound 4 200 mg/kg as DTX, DTX 100 mg/kg)
Protocol: Mouse colon cancer, Colon26, maintained by serial subcutaneous subculture in mice was minced into about 2-mm square fragments, and these fragments were subcutaneously transplanted on the dorsal part of female CDF1 mice with a trocar. Seven days after tumor transplantation, the polymer conjugate of the present invention (compound 4) or the control drug (docetaxel, DTX) was intravenously administered once to the mouse tail vein at the maximum tolerance dose. The compound 4 was dissolved in a 5% glucose solution for injection at a level for the use at a dose of 200 mg/kg as DTX. DTX to be used was prepared by dissolving a commercially available Taxotere injection (for the use at a dose of 100 mg/kg use) with a vehicle solution attached to the product and diluting it with physiological saline at the time of use. After the administration, the major axis (L mm) and minor axis (W mm) of the tumor were measured using a caliper, and the tumor volume was calculated by the formula: (L×W^2)/2.

[2] = test system: Mouse colon cancer, Colon26; experiment: Antitumor effect of compounds 2 and 3 (Test Example 4); conditions: single i.v. at maximum tolerance dose (conjugates 200 mg/kg as DTX, DTX 100 mg/kg)
Excerpt: Mouse colon cancer, Colon26, maintained by serial subcutaneous subculture in mice was minced into about 2-mm square fragments, and the fragments were subcutaneously transplanted on the dorsal part of female CDF1 mice with a trocar. Seven days after tumor transplantation, the polymer conjugates of the present invention (compound 2 and compound 3) and the control drug (docetaxel, DTX) were each intravenously administered once to the mouse tail vein at the respective maximum tolerance dose. The compound 2 and compound 3 were dissolved in 5% glucose solution for injection to a level for the use at a dose of 200 mg/kg as DTX. DTX to be used was prepared by dissolving a commercially available Taxotere injection (for 100 mg/kg use) in a vehicle solution attached to the product, and diluting it with physiological saline at the time of use. After the administration, the major axis (L mm) and minor axis (W mm) of the tumor were measured using a caliper, and the tumor volume was calculated by the formula: (L×W^2)/2.

[3] = test system: Mouse colon cancer, Colon26; experiment: Antitumor effect of compound 1 (Test Example 3); conditions: i.v. three times (Day 0, 4, 8), 200 mg/kg as PTX
Protocol: Mouse colon cancer, Colon26, maintained by serial subcutaneous subculture in mice was minced into about 2-mm square fragments, and the fragments were subcutaneously transplanted on the dorsal part of female CDF1 mice with a trocar. Seven days after tumor transplantation, the polymer conjugate of the present invention (compound 1) or the control drug (paclitaxel, PTX) was administered intravenously to the mouse tail vein three times at an interval of 4 days (Day 0, Day 4 and Day 8 in Table 1) at a dose of 200 mg/kg as PTX. The compound 1 was dissolved in a 5% glucose solution for injection and used. PTX was dissolved in anhydrous ethanol and cremophor (manufactured by Sigma Co., Ltd) and diluted with physiological saline at the time of use. After the administration, the major axis (L mm) and minor axis (W mm) of the tumor were measured using a caliper, and the volume of the tumor was calculated by the formula: (L×W^2)/2.

Row | SMILES | relative tumor volume ([1]; Day 0 after administration) | relative tumor volume ([1]; Day 3 after administration) | relative tumor volume ([1]; Day 5 after administration) | relative tumor volume ([1]; Day 7 after administration) | relative tumor volume ([1]; Day 10 after administration) | relative tumor volume ([2]; Day 0 after administration) | relative tumor volume ([2]; Day 2 after administration) | relative tumor volume ([2]; Day 4 after administration) | relative tumor volume ([2]; Day 7 after administration) | relative tumor volume ([2]; Day 10 after administration) | relative tumor volume ([3]; Day 0 after administration initiation) | relative tumor volume ([3]; Day 4 after administration initiation) | relative tumor volume ([3]; Day 8 after administration initiation) | relative tumor volume ([3]; Day 11 after administration initiation)
1 | CC(=O)O[C@@]12CO[C@@H]1C[C@H](O)[C@@]1(C)C(=O)[C@H](O)C3=C(C)[C@@H](OC(=O)[C@H](O)[C@@H](NC(=O)OC(C)(C)C)c4ccccc4)C[C@@](O)([C@@H](OC(=O)c4ccccc4)[C@H]21)C3(C)C [DTX, docetaxel] | 1.00 | 1.17 | 1.17 | 2.17 | 5.75 | 1.00 | 1.61 | 1.57 | 2.30 | 5.85 |  |  |  | 
2 | CC(=O)O[C@H]1C(=O)[C@@]2(C)[C@H]([C@H](OC(=O)c3ccccc3)[C@]3(O)C[C@H](OC(=O)[C@H](O)[C@@H](NC(=O)c4ccccc4)c4ccccc4)C(C)=C1C3(C)C)[C@]1(OC(C)=O)CO[C@@H]1C[C@@H]2O [Paclitaxel, paclitaxel] |  |  |  |  |  |  |  |  |  |  | 1 | 3.28 | 4.75 | 4.07
